Results published in patent US5883243A, “Non-reducing saccharides, their preparations and uses” (Kabushiki Kaisha Hayashibara Seibutsu Kagaku Kenkyujo, priority 1997, dated 1999).

What was measured:
[1] = test system: Streptococcus sobrinus ATCC 27351; assay: Acid formation by dental caries-inducing microorganisms; conditions: living wet cells, 0.02M saccharide, Stephen buffer pH 7.0, 37° C.; for pH at each fermentation time (min): 0: 0 min; for pH at each fermentation time (min): 5: 5 min; for pH at each fermentation time (min): 15: 15 min; for pH at each fermentation time (min): 30: 30 min; for pH at each fermentation time (min): 60: 60 min; for pH at each fermentation time (min): 90: 90 min
[2] = Maillard reaction (coloration with glycine); assay type: physicochemical; conditions: 10 w/v % saccharide, one w/v % glycine, 50 mM phosphate buffer pH 7.0, 100° C., 90 min; 1-cm cell
[3] = test system: Bifidobacterium adolescentis JCM 1275; assay: Assimilation test by intestinal microorganism; assay type: cell-based; conditions: 0.5 w/v % saccharide in PYF broth, 37° C., 96 hours
[4] = test system: Bifidobacterium animalis JCM 1190; assay: Assimilation test by intestinal microorganism; assay type: cell-based; conditions: 0.5 w/v % saccharide in PYF broth, 37° C., 96 hours
[5] = test system: Bifidobacterium bifidum JCM 1255; assay: Assimilation test by intestinal microorganism; assay type: cell-based; conditions: 0.5 w/v % saccharide in PYF broth, 37° C., 96 hours
[6] = test system: Bifidobacterium breve JCM 1192; assay: Assimilation test by intestinal microorganism; assay type: cell-based; conditions: 0.5 w/v % saccharide in PYF broth, 37° C., 96 hours
[7] = test system: Bifidobacterium infantis JCM 1222; assay: Assimilation test by intestinal microorganism; assay type: cell-based; conditions: 0.5 w/v % saccharide in PYF broth, 37° C., 96 hours
[8] = test system: Bifidobacterium longum JCM 1217; assay: Assimilation test by intestinal microorganism; assay type: cell-based; conditions: 0.5 w/v % saccharide in PYF broth, 37° C., 96 hours
[9] = test system: Lactobacillus fermentum IFO 3959; assay: Assimilation test by intestinal microorganism; assay type: cell-based; conditions: 0.5 w/v % saccharide in PYF broth, 37° C., 96 hours
[10] = test system: Lactobacillus plantarum IFO 3070; assay: Assimilation test by intestinal microorganism; assay type: cell-based; conditions: 0.5 w/v % saccharide in PYF broth, 37° C., 96 hours
[11] = test system: Eubacterium aerofaciens ATCC 25986; assay: Assimilation test by intestinal microorganism; assay type: cell-based; conditions: 0.5 w/v % saccharide in PYF broth, 37° C., 96 hours
[12] = test system: Bacteroides distasonis JCM 5825; assay: Assimilation test by intestinal microorganism; assay type: cell-based; conditions: 0.5 w/v % saccharide in PYF broth, 37° C., 96 hours
[13] = test system: Bacteroides vulgatus JCM 5826; assay: Assimilation test by intestinal microorganism; assay type: cell-based; conditions: 0.5 w/v % saccharide in PYF broth, 37° C., 96 hours
[14] = test system: Bacteroides uniformis JCM 5828; assay: Assimilation test by intestinal microorganism; assay type: cell-based; conditions: 0.5 w/v % saccharide in PYF broth, 37° C., 96 hours
[15] = test system: Clostridium butyricum JCM 1391; assay type: cell-based; conditions: 0.5 w/v % saccharide in PYF broth, 37° C., 96 hours
[16] = test system: Clostridium ramosum JCM 1298; assay: Assimilation test by intestinal microorganism; assay type: cell-based; conditions: 0.5 w/v % saccharide in PYF broth, 37° C., 96 hours
[17] = test system: Streptococcus faecalis IAM 10065; assay: Assimilation test by intestinal microorganism; assay type: cell-based; conditions: 0.5 w/v % saccharide in PYF broth, 37° C., 96 hours
[18] = test system: Peptostreptococcus prevotii ATCC 9321; assay: Assimilation test by intestinal microorganism; assay type: cell-based; conditions: 0.5 w/v % saccharide in PYF broth, 37° C., 96 hours
[19] = test system: Escherichia coli IFO 3301; assay: Assimilation test by intestinal microorganism; assay type: cell-based; conditions: 0.5 w/v % saccharide in PYF broth, 37° C., 96 hours
bifid bacteria = assay: Assimilation test by intestinal microorganism, overall judgement; assay type: cell-based; conditions: results of Tables 4 and 5
Method: To evaluate the growth rate of and to judge the assimilability by the microorganisms, the resultant broth was diluted 5-fold, and the turbidity of the dilution was measured at a wavelength of 750 nm in a 1-cm light-path cell. […] The criteria were in Table 3, and the results were in Tables 4 and 5: […]

[20] = test system: crude glucosyltransferase specimen derived from Streptococcus sobrinus strain (ATCC 27351); assay: Inhibition of insoluble glucan formation by glucosyltransferase from dental caries-inducing microorganism; assay type: biochemical; conditions: for Yield of non-adsorbed glucans / Yield of adsorbed glucans: sucrose plus test saccharide (one ml of one w/v % each), pH 6.8, 37° C., 16 hours; for Yield of non-adsorbed glucans: sucrose alone 923; for Yield of adsorbed glucans: sucrose alone 1,160
Method: To a mixture solution consisting of one ml of one w/v % sucrose solution, one ml of one w/v % of a test saccharide solution, and 1.5 ml of 0.1M phosphate buffer (pH 6.8) was added 0.5 ml solution containing a crude glucosyltransferase specimen in a total protein content of 10 mg, and the mixture solution was placed in a small test tube which was then fixed and slanted to give a grade 30 degrees and allowed to react at 37° C. for 16 hours. The reaction mixture was transferred gently to another test tube and mixed with a solution obtained by washing carefully with 4 ml water the remaining substances adhered to the inner walls of the small test tube, and the mixture solution was centrifuged to obtain a precipitate as a non-adsorbed glucan. The amounts of the adsorbed- and non-adsorbed glucans thus obtained were respectively quantified by the anthrone-sulfuric acid method, and the total amount of them was regarded as the amount of the formed insoluble glucans. As a control system, a reaction system using water in place of the test saccharide solution, i.e. a reaction system using sucrose as a saccharide, was provided.

[21] = test system: Enzyme from small intestinal mucus membrane; conditions: enzymes of small intestinal mucus membranes
[22] = test system: Clostridium perfringens JCM 3816; assay type: cell-based; conditions: 0.5 w/v % saccharide in PYF broth, 37° C., 96 hours

For OC[C@H]1O[C@@](CO)(O[C@H]2O[C@H](CO)[C@@H](O)[C@H](O)[C@H]2O)[C@@H](O)[C@@H]1O [Sucrose, sucrose, reference compound], the “pH at each fermentation time (min): 0” value [1] was 7.0, the “pH at each fermentation time (min): 5” value [1] was 4.3 and the “pH at each fermentation time (min): 15” value [1] was 4.1. The “pH at each fermentation time (min): 30” value [1] was 4.0, the “pH at each fermentation time (min): 60” value [1] was 4.0 and the “pH at each fermentation time (min): 90” value [1] was 4.0.

With OC[C@H]1O[C@H](OC[C@H]2O[C@H](OC[C@H]3O[C@H](O[C@H]4O[C@H](CO)[C@@H](O)[C@H](O)[C@H]4O)[C@H](O)[C@@H](O)[C@@H]3O)[C@H](O)[C@@H](O)[C@@H]2O)[C@H](O)[C@@H](O)[C@@H]1O [α-Isomaltotriosyl α-glucoside, O-α-D-glucopyranosyl-(1→6 )-O-α-D-glucopyranosyl-(1→6)-α-D-glucopyranosyl α-D-glucopyrandside] the “Coloration degree (at a wavelength of 480 nm)” value [2] was 0.019, the “Judgement of assimilation (turbidity at a wavelength of 750 nm × 5)” value (shortened to “Judgement of assimilation”) [3] was “+++ (0.3 or higher)” and the “Judgement of assimilation” value [4] was “+++ (0.3 or higher)”. The “Judgement of assimilation” value [5] was “++ (0.2 or higher but less than 0.3)”, the “Judgement of assimilation” value [6] was “+++ (0.3 or higher)” and the “Judgement of assimilation” value [7] was “++ (0.2 or higher but less than 0.3)”. For the same compound, the “Judgement of assimilation” value [8] was “+++ (0.3 or higher)”, the “Judgement of assimilation” value [9] was “- (Less than 0.1)” and the “Judgement of assimilation” value [10] was “- (Less than 0.1)”. For the same compound, the “Judgement of assimilation” value [11] was “- (Less than 0.1)”, the “Judgement of assimilation” value [12] was “- (Less than 0.1)” and the “Judgement of assimilation” value [13] was “- (Less than 0.1)”. For the same compound, the “Judgement of assimilation” value [14] was “- (Less than 0.1)”, the “Judgement of assimilation” value [15] was “+++ (0.3 or higher)” and the “Judgement of assimilation” value [16] was “- (Less than 0.1)”. For the same compound, the “Judgement of assimilation” value [17] was “- (Less than 0.1)”, the “Judgement of assimilation” value [18] was “± (0.1 or higher but less than 0.15)” and the “Judgement of assimilation” value [19] was “- (Less than 0.1)”. For the same compound, the “Selective assimilability by bifid bacteria, in words” value (bifid bacteria) was “high in the selective assimilability by bifid bacteria”, the “Yield of non-adsorbed glucans” value [20] was 269 µg/mL and the “Yield of adsorbed glucans” value [20] was 66 µg/mL. The “Digestibility, judgement in words” value [21] was “relatively-low in digestibility”, the “pH at each fermentation time (min): 0” value [1] was 7.0 and the “pH at each fermentation time (min): 5” value [1] was 7.0. For the same compound, the “pH at each fermentation time (min): 15” value [1] was 6.9, the “pH at each fermentation time (min): 30” value [1] was 6.9 and the “pH at each fermentation time (min): 60” value [1] was 6.9. The “pH at each fermentation time (min): 90” value [1] was 6.9.

In the case of OC[C@H]1O[C@H](O[C@H]2O[C@H](CO)[C@@H](O)[C@H](O)[C@H]2O)[C@H](O)[C@@H](O)[C@@H]1O [Trehalose, trehalose, reference compound], the “Coloration degree (at a wavelength of 480 nm)” value [2] is reported as 0.007, the “Judgement of assimilation” value [3] is reported as “+ (0.15 or higher but less than 0.2)” and the “Judgement of assimilation” value [4] is reported as “+ (0.15 or higher but less than 0.2)”. For the same compound, the “Judgement of assimilation” value [5] was “+ (0.15 or higher but less than 0.2)”, the “Judgement of assimilation” value [6] was “- (Less than 0.1)” and the “Judgement of assimilation” value [7] was “- (Less than 0.1)”. The “Judgement of assimilation” value [8] was “++ (0.2 or higher but less than 0.3)”, the “Judgement of assimilation” value [9] was “+ (0.15 or higher but less than 0.2)” and the “Judgement of assimilation” value [10] was “++ (0.2 or higher but less than 0.3)”. The “Judgement of assimilation” value [11] was “- (Less than 0.1)”, the “Judgement of assimilation” value [12] was “++ (0.2 or higher but less than 0.3)” and the “Judgement of assimilation” value [13] was “+ (0.15 or higher but less than 0.2)”. For the same compound, the “Judgement of assimilation” value [14] was “++ (0.2 or higher but less than 0.3)”, the “Judgement of assimilation” value [15] was “+++ (0.3 or higher)” and the “Judgement of assimilation” value [22] was “+++ (0.3 or higher)”. The “Judgement of assimilation” value [16] was “+ (0.15 or higher but less than 0.2)”, the “Judgement of assimilation” value [17] was “+ (0.15 or higher but less than 0.2)” and the “Judgement of assimilation” value [18] was “+ (0.15 or higher but less than 0.2)”. The “Judgement of assimilation” value [19] was “- (Less than 0.1)”, the “Yield of non-adsorbed glucans” value [20] was 1,130 μg/ml and the “Yield of adsorbed glucans” value [20] was 772 µg/mL. For the same compound, the “Inhibitory percentage (%) on insoluble glucans' formation” value ([20]; sucrose plus test saccharide, versus sucrose alone) was 8.7%, the “pH at each fermentation time (min): 0” value [1] was 7.0 and the “pH at each fermentation time (min): 5” value [1] was 6.7. The “pH at each fermentation time (min): 15” value [1] was 5.3, the “pH at each fermentation time (min): 30” value [1] was 4.7 and the “pH at each fermentation time (min): 60” value [1] was 4.3. The “pH at each fermentation time (min): 90” value [1] was 4.2.
